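Method: 48-hour compound exposure of cells in 96-well plates, five concentrations, linear interpolation of endpoints. The concentration for full growth arrest is given as TGI.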
How the values were obtained:
Experiment in all cases: NCI tumour cell line growth inhibition, 48 h
786-0 renal = test system: 786-0 renal
A498 renal = test system: A498 renal
A549 NSCLC = test system: A549 NSCLC
ACHN renal = test system: ACHN renal
BT-549 breast = test system: BT-549 breast
CAKI-1 renal = test system: CAKI-1 renal
CCRF-CEM leukemia = test system: CCRF-CEM leukemia
COLO 205 colon = test system: COLO 205 colon
DU-145 prostate = test system: DU-145 prostate
EKVX NSCLC = test system: EKVX NSCLC
HCC-2998 colon = test system: HCC-2998 colon
HCT-116 colon = test system: HCT-116 colon
HCT-15 colon = test system: HCT-15 colon
HL-60(TB) leukemia = test system: HL-60(TB) leukemia
HOP-62 NSCLC = test system: HOP-62 NSCLC
HOP-92 NSCLC = test system: HOP-92 NSCLC
HS 578T breast = test system: HS 578T breast
HT29 colon = test system: HT29 colon
IGROV1 ovarian = test system: IGROV1 ovarian
K-562 leukemia = test system: K-562 leukemia
KM12 colon = test system: KM12 colon
LOX IMVI melanoma = test system: LOX IMVI melanoma
M14 melanoma = test system: M14 melanoma
MALME-3M melanoma = test system: MALME-3M melanoma
MCF7 breast = test system: MCF7 breast
MDA-MB-231 breast = test system: MDA-MB-231 breast
MDA-MB-435 = test system: MDA-MB-435
MDA-N = test system: MDA-N
MOLT-4 leukemia = test system: MOLT-4 leukemia
NCI-H226 lung = test system: NCI-H226 lung
NCI-H23 lung = test system: NCI-H23 lung
NCI-H460 lung = test system: NCI-H460 lung
NCI-H522 lung = test system: NCI-H522 lung
NCI/ADR-RES ovarian = test system: NCI/ADR-RES ovarian
OVCAR-4 ovarian = test system: OVCAR-4 ovarian
OVCAR-5 ovarian = test system: OVCAR-5 ovarian
OVCAR-8 ovarian = test system: OVCAR-8 ovarian
PC-3 prostate = test system: PC-3 prostate
RPMI-8226 leukemia = test system: RPMI-8226 leukemia
RXF 393 renal = test system: RXF 393 renal
SF-268 CNS = test system: SF-268 CNS
SF-295 CNS = test system: SF-295 CNS
SK-MEL-2 melanoma = test system: SK-MEL-2 melanoma
SK-MEL-28 melanoma = test system: SK-MEL-28 melanoma
SK-MEL-5 melanoma = test system: SK-MEL-5 melanoma
SK-OV-3 ovarian = test system: SK-OV-3 ovarian
SN12C renal = test system: SN12C renal
SNB-19 CNS = test system: SNB-19 CNS
SNB-75 CNS = test system: SNB-75 CNS
SR leukemia = test system: SR leukemia
SW-620 colon = test system: SW-620 colon
T-47D breast = test system: T-47D breast
TK-10 renal = test system: TK-10 renal
U251 CNS = test system: U251 CNS
UACC-257 melanoma = test system: UACC-257 melanoma
UACC-62 melanoma = test system: UACC-62 melanoma
UO-31 renal = test system: UO-31 renal
OVCAR-3 ovarian = test system: OVCAR-3 ovarian
SF-539 CNS = test system: SF-539 CNS

## CC1=NNC(N)=N/C1=C\C(Sc1ccc(Cl)cc1)c1ccc(Cl)cc1Cl (stereo not given)
786-0 renal
  TGI: 75.9 µM
A498 renal
  TGI: 42.8 µM
A549 NSCLC
  TGI: 59.4 µM
ACHN renal
  TGI: 29.1 µM
BT-549 breast
  TGI: 55.7 µM
CAKI-1 renal
  TGI: > 67.1 µM
CCRF-CEM leukemia
  TGI: 7.62 µM
COLO 205 colon
  TGI: 50.4 µM
DU-145 prostate
  TGI: 61.7 µM
EKVX NSCLC
  TGI: 32.7 µM
HCC-2998 colon
  TGI: 17 µM
HCT-116 colon
  TGI: > 65 µM
HCT-15 colon
  TGI: 30.4 µM
HL-60(TB) leukemia
  TGI: 22.2 µM
HOP-62 NSCLC
  TGI: 57.8 µM
HOP-92 NSCLC
  TGI: > 50.5 µM
HS 578T breast
  TGI: 44.2 µM
HT29 colon
  TGI: 14.2 µM
IGROV1 ovarian
  TGI: 21.9 µM
K-562 leukemia
  TGI: 56.3 µM
KM12 colon
  TGI: 34.2 µM
LOX IMVI melanoma
  TGI: > 49.4 µM
M14 melanoma
  TGI: 31.8 µM
MALME-3M melanoma
  TGI: 28.8 µM
MCF7 breast
  TGI: 16.4 µM
MDA-MB-231 breast
  TGI: > 52.3 µM
MDA-MB-435
  TGI: > 76.6 µM
MDA-N
  TGI: > 71.5 µM
MOLT-4 leukemia
  TGI: > 100 µM
NCI-H226 lung
  TGI: 36.2 µM
NCI-H23 lung
  TGI: 29.4 µM
NCI-H460 lung
  TGI: 29.3 µM
NCI-H522 lung
  TGI: 18.6 µM
NCI/ADR-RES ovarian
  TGI: 39 µM
OVCAR-4 ovarian
  TGI: 44.6 µM
OVCAR-5 ovarian
  TGI: 36.7 µM
OVCAR-8 ovarian
  TGI: 31.7 µM
PC-3 prostate
  TGI: 26.4 µM
RPMI-8226 leukemia
  TGI: 61.2 µM
RXF 393 renal
  TGI: 50.9 µM
SF-268 CNS
  TGI: 33.2 µM
SF-295 CNS
  TGI: 52.9 µM
SK-MEL-2 melanoma
  TGI: 38 µM
SK-MEL-28 melanoma
  TGI: 55.7 µM
SK-MEL-5 melanoma
  TGI: 40.1 µM
SK-OV-3 ovarian
  TGI: 41.9 µM
SN12C renal
  TGI: 62.4 µM
SNB-19 CNS
  TGI: 32.8 µM
SNB-75 CNS
  TGI: 32.9 µM
SR leukemia
  TGI: > 100 µM
SW-620 colon
  TGI: 59.9 µM
T-47D breast
  TGI: 38.8 µM
TK-10 renal
  TGI: 45.9 µM
U251 CNS
  TGI: > 57.1 µM
UACC-257 melanoma
  TGI: 39.9 µM
UACC-62 melanoma
  TGI: > 51.9 µM
UO-31 renal
  TGI: 27 µM

## O=C1CSC(c2cc3cc(Br)ccc3nc2Cl)N1c1ccc(F)c(Cl)c1 (stereo not given)
786-0 renal
  TGI: > 50 µM
A498 renal
  TGI: > 50 µM
A549 NSCLC
  TGI: > 50 µM
ACHN renal
  TGI: > 50 µM
BT-549 breast
  TGI: > 50 µM
CAKI-1 renal
  TGI: > 50 µM
CCRF-CEM leukemia
  TGI: > 50 µM
COLO 205 colon
  TGI: > 50 µM
DU-145 prostate
  TGI: > 50 µM
EKVX NSCLC
  TGI: > 50 µM
HCC-2998 colon
  TGI: > 50 µM
HCT-116 colon
  TGI: > 50 µM
HCT-15 colon
  TGI: > 50 µM
HL-60(TB) leukemia
  TGI: > 50 µM
HOP-62 NSCLC
  TGI: > 50 µM
HOP-92 NSCLC
  TGI: > 50 µM
HS 578T breast
  TGI: > 50 µM
HT29 colon
  TGI: > 50 µM
IGROV1 ovarian
  TGI: > 50 µM
K-562 leukemia
  TGI: > 50 µM
KM12 colon
  TGI: > 50 µM
LOX IMVI melanoma
  TGI: > 50 µM
M14 melanoma
  TGI: > 50 µM
MALME-3M melanoma
  TGI: > 50 µM
MCF7 breast
  TGI: > 50 µM
MDA-MB-231 breast
  TGI: > 50 µM
MDA-MB-435
  TGI: > 50 µM
MDA-N
  TGI: > 50 µM
MOLT-4 leukemia
  TGI: 32.9 µM
NCI-H226 lung
  TGI: > 50 µM
NCI-H23 lung
  TGI: > 50 µM
NCI-H460 lung
  TGI: > 50 µM
NCI-H522 lung
  TGI: > 50 µM
NCI/ADR-RES ovarian
  TGI: > 50 µM
OVCAR-3 ovarian
  TGI: > 50 µM
OVCAR-4 ovarian
  TGI: > 50 µM
OVCAR-5 ovarian
  TGI: > 50 µM
OVCAR-8 ovarian
  TGI: > 50 µM
PC-3 prostate
  TGI: > 50 µM
RPMI-8226 leukemia
  TGI: > 50 µM
RXF 393 renal
  TGI: > 50 µM
SF-268 CNS
  TGI: > 50 µM
SF-295 CNS
  TGI: > 50 µM
SF-539 CNS
  TGI: > 50 µM
SK-MEL-2 melanoma
  TGI: > 50 µM
SK-MEL-28 melanoma
  TGI: > 50 µM
SK-MEL-5 melanoma
  TGI: > 50 µM
SK-OV-3 ovarian
  TGI: > 50 µM
SN12C renal
  TGI: > 50 µM
SNB-19 CNS
  TGI: > 50 µM
SNB-75 CNS
  TGI: > 50 µM
SR leukemia
  TGI: > 50 µM
SW-620 colon
  TGI: > 50 µM
T-47D breast
  TGI: > 50 µM
TK-10 renal
  TGI: > 50 µM
UACC-257 melanoma
  TGI: > 50 µM
UACC-62 melanoma
  TGI: > 50 µM
UO-31 renal
  TGI: > 50 µM
